The text below walks through data of patent publication US12194051B2, “5-azaindazole derivatives as adenosine receptor antagonists” (MERCK PATENT GMBH, priority 2018, dated 2025).

The target of one experiment is T1, human A2A receptors (Homo sapiens, UniProt P29274).
T1 construct: expressed in transfected cells; host or cells: HEK293
Put plainly: Inhibition of human A2A receptor in recombinant HEK293 cells, cAMP quantification (HTRF). The note with it: read-out: A2A (Category). In kind it is cell-based. Here is the method: (§1) The functional activities of human A2A and A2B receptors were determined by quantification of cAMP, being the second messenger for adenosine receptors.
(§2) After a 15 min incubation, HTRF reagents (cAMP dynamic 2, Cis Bio) were added and the cellular cAMP levels were determined using the ENVISION (Perkin Elmer) plate reader.
For orientation: In TR-FRET formats the signal depends on donor and acceptor labels being close together.

The target of a further experiment is T2, human A2B receptors (Homo sapiens, UniProt P29275).
T2 construct: expressed in transfected cells; host or cells: HEK293
T2 sequence (P29275 1-332): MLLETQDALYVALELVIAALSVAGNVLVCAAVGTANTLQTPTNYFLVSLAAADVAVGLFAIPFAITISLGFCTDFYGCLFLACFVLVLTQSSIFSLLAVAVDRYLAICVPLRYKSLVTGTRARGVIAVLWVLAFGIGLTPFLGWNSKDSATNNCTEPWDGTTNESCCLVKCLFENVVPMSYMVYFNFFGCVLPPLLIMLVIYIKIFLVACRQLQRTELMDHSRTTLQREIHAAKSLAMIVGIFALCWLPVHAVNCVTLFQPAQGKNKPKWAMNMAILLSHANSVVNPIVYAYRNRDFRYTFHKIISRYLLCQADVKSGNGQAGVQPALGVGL
Put plainly: Inhibition of human A2B receptor in recombinant HEK293 cells, cAMP quantification (HTRF). In kind it is cell-based. The note with it: read-out: A2B (Category). How it is done:
as §1, §2

T1 sequence (P29274 whole entry): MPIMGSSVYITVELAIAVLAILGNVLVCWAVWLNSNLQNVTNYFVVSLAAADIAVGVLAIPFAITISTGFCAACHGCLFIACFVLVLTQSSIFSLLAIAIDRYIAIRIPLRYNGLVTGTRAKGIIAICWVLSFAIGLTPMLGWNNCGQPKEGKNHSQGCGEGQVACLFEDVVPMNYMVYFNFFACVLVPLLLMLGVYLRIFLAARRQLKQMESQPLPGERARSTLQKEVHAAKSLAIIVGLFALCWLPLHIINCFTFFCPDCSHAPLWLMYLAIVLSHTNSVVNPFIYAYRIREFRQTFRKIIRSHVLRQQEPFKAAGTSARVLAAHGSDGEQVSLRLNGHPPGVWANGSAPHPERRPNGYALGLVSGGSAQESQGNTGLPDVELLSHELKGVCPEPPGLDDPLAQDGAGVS

For the compound `O=C(c1cc2c(cn1)c(Nc1ccccc1F)nn2CC(F)(F)F)N1CCCOCC1` [Compound 1, [3-(2-fluoroanilino)-1-(2,2,2-trifluoroethyl)pyrazolo[4,3-c]pyridin-6-yl]-(1,4-oxazepan-4-yl)methanone], the values for the IC50 on human A2A receptors and at human A2B receptors were below 100 nM and below 1000 nM, respectively.
With `O=C(c1cc2c(cn1)c(Nc1ccccc1)nn2CC(F)(F)F)N1CCCOCC1` [Compound 2, [3-anilino-1-(2,2,2-trifluoroethyl)pyrazolo[4,3-c]pyridin-6-yl]-(1,4-oxazepan-4-yl)methanone], the IC50 at human A2A receptors was below 100 nM; on human A2B receptors, below 1000 nM.
On to `O=C(c1cc2c(cn1)c(Nc1cccc(F)c1)nn2CC(F)(F)F)N1CCCOCC1` [Compound 6, [3-(3-fluoroanilino)-1-(2,2,2-trifluoroethyl)pyrazolo[4,3-c]pyridin-6-yl]-(1,4-oxazepan-4-yl)methanone], for which the IC50 on human A2A receptors and at human A2B receptors was below 100 nM throughout.
As to `COc1cccc(Nc2nn(CC(F)(F)F)c3cc(C(=O)N4CCCOCC4)ncc23)c1` [Compound 7, [3-(3-methoxyanilino)-1-(2,2,2-trifluoroethyl)pyrazolo[4,3-c]pyridin-6-yl]-(1,4-oxazepan-4-yl)methanone], the IC50 on human A2A receptors and at human A2B receptors was below 100 nM each time.
As for `N#Cc1cccc(Nc2nn(CC(F)(F)F)c3cc(C(=O)N4CCCOCC4)ncc23)c1` [Compound 8, 3-[[6-(1,4-oxazepane-4-carbonyl)-1-(2,2,2-trifluoroethyl)pyrazolo[4,3-c]pyridin-3-yl]amino]benzonitrile], the values for the IC50 at human A2A receptors and on human A2B receptors were below 100 nM and below 1000 nM, respectively.
Regarding `COc1ccc(Nc2nn(CC(F)(F)F)c3cc(C(=O)N4CCCOCC4)ncc23)cc1` [Compound 11, [3-(4-methoxyanilino)-1-(2,2,2-trifluoroethyl)pyrazolo[4,3-c]pyridin-6-yl]-(1,4-oxazepan-4-yl)methanone], the IC50 at human A2A receptors was below 100 nM; at human A2B receptors it was below 1000 nM.
The matching figures for `N#Cc1ccc(Nc2nn(CC(F)(F)F)c3cc(C(=O)N4CCCOCC4)ncc23)cc1` [Compound 13, 4-[[6-(1,4-oxazepane-4-carbonyl)-1-(2,2,2-trifluoroethyl)pyrazolo[4,3-c]pyridin-3-yl]amino]benzonitrile]: below 100 nM and below 1000 nM.
Take `O=C(c1cc2c(cn1)c(Nc1cc(F)cc(F)c1)nn2CC(F)(F)F)N1CCCOCC1` [Compound 15, [3-(3,5-difluoroanilino)-1-(2,2,2-trifluoroethyl)pyrazolo[4,3-c]pyridin-6-yl]-(1,4-oxazepan-4-yl)methanone]: the IC50 is below 100 nM at human A2A receptors and below 1000 nM on human A2B receptors.
As to `Cc1ccc(Nc2nn(CC(F)(F)F)c3cc(C(=O)N4CCCOCC4)ncc23)cc1F` [Compound 16, [3-(3-fluoro-4-methylanilino)-1-(2,2,2-trifluoroethyl)pyrazolo[4,3-c]pyridin-6-yl]-(1,4-oxazepan-4-yl)methanone], the IC50 at human A2A receptors and on human A2B receptors was below 100 nM in each case.
As for `O=C(c1cc2c(cn1)c(Nc1ccc(F)c(F)c1)nn2CC(F)(F)F)N1CCCOCC1` [Compound 17, [3-(3,4-difluoroanilino)-1-(2,2,2-trifluoroethyl)pyrazolo[4,3-c]pyridin-6-yl]-(1,4-oxazepan-4-yl)methanone], the IC50 is below 100 nM at human A2A receptors and below 1000 nM at human A2B receptors.
Turning to `O=C(c1cc2c(cn1)c(Nc1ccc(F)c(Cl)c1)nn2CC(F)(F)F)N1CCCOCC1` [Compound 18, [3-(3-chloro-4-fluoroanilino)-1-(2,2,2-trifluoroethyl)pyrazolo[4,3-c]pyridin-6-yl]-(1,4-oxazepan-4-yl)methanone], the results for the IC50 on human A2A receptors and at human A2B receptors were below 100 nM and below 1000 nM, respectively.
As to `O=C(c1cc2c(cn1)c(Nc1ccc(Cl)c(F)c1)nn2CC(F)(F)F)N1CCCOCC1` [Compound 19, [3-(4-chloro-3-fluoroanilino)-1-(2,2,2-trifluoroethyl)pyrazolo[4,3-c]pyridin-6-yl]-(1,4-oxazepan-4-yl)methanone], the IC50 at human A2A receptors and on human A2B receptors was below 100 nM throughout.
With `O=C(c1cc2c(cn1)c(Nc1cccc(F)c1)nn2CC(F)(F)F)N1CC2CCC(C1)O2` [Compound 20, [3-(3-fluoroanilino)-1-(2,2,2-trifluoroethyl)pyrazolo[4,3-c]pyridin-6-yl]-(8-oxa-3-azabicyclo[3.2.1]octan-3-yl)methanone], the IC50 at human A2A receptors was below 100 nM; on human A2B receptors it was below 1000 nM.
Turning to `O=C(c1cc2c(cn1)c(Nc1ccc(F)cc1)nn2CC(F)(F)F)N1CC2CCC(C1)O2` [Compound 21, [3-(4-fluoroanilino)-1-(2,2,2-trifluoroethyl)pyrazolo[4,3-c]pyridin-6-yl]-(8-oxa-3-azabicyclo[3.2.1]octan-3-yl)methanone], the IC50 on human A2A receptors and at human A2B receptors was below 100 nM in each case.
With `O=C(c1cc2c(cn1)c(Nc1ccc(F)cc1)nn2CC(F)(F)F)N1CCC(O)CC1` [Compound 22, [3-(4-fluoroanilino)-1-(2,2,2-trifluoroethyl)pyrazolo[4,3-c]pyridin-6-yl]-(4-hydroxy-1-piperidyl)methanone], the IC50 at human A2A receptors and at human A2B receptors was below 100 nM throughout.
Regarding `O=C(c1cc2c(cn1)c(Nc1cccc(F)c1)nn2CC(F)(F)F)N1CCC(O)CC1` [Compound 23, [3-(3-fluoroanilino)-1-(2,2,2-trifluoroethyl)pyrazolo[4,3-c]pyridin-6-yl]-(4-hydroxy-1-piperidyl)methanone], the IC50 at human A2A receptors and at human A2B receptors was below 100 nM throughout.
As for `O=C(c1cc2c(cn1)c(Nc1ccccn1)nn2CC(F)(F)F)N1CCC(O)CC1` [Compound 24, (4-hydroxy-1-piperidyl)-[3-(2-pyridylamino)-1-(2,2,2-trifluoroethyl)pyrazolo[4,3-c]pyridin-6-yl]methanone], the IC50 on human A2A receptors and on human A2B receptors was below 100 nM each time.
For `O=C(c1cc2c(cn1)c(Nc1cccc(F)c1)nn2CC(F)(F)F)N1[C@@H]2CC[C@H]1C[C@@H](O)C2` [Compound 25, [3-(3-fluoroanilino)-1-(2,2,2-trifluoroethyl)pyrazolo[4,3-c]pyridin-6-yl]-(3-endo-hydroxy-8-azabicyclo[3.2.1]octan-8-yl)methanone], the IC50 at human A2A receptors and at human A2B receptors was below 100 nM throughout.
For `O=C(c1cc2c(cn1)c(Nc1ccc(F)cc1)nn2CC(F)(F)F)N1[C@@H]2CC[C@H]1C[C@@H](O)C2` [Compound 26, [3-(4-fluoroanilino)-1-(2,2,2-trifluoroethyl)pyrazolo[4,3-c]pyridin-6-yl]-(3-endo-hydroxy-8-azabicyclo[3.2.1]octan-8-yl)methanone], the IC50 is below 100 nM at human A2A receptors and below 1000 nM at human A2B receptors.
As for `CS(=O)(=O)Cn1nc(Nc2ccc(F)cc2)c2cnc(C(=O)N3CCCOCC3)cc21` [Compound 27, [3-(4-fluoroanilino)-1-(methylsulfonylmethyl)pyrazolo[4,3-c]pyridin-6-yl]-(1,4-oxazepan-4-yl)methanone], the values for the IC50 at human A2A receptors and at human A2B receptors were below 100 nM and below 1000 nM, respectively.
Turning to `CS(=O)(=O)Cn1nc(Nc2cccc(F)c2)c2cnc(C(=O)N3CCCOCC3)cc21` [Compound 28, [3-(3-fluoroanilino)-1-(methylsulfonylmethyl)pyrazolo[4,3-c]pyridin-6-yl]-(1,4-oxazepan-4-yl)methanone], the IC50 at human A2A receptors and at human A2B receptors was below 100 nM in each case.
Consider `CS(=O)(=O)Cn1nc(Nc2ccccc2)c2cnc(C(=O)N3[C@@H]4CC[C@H]3C[C@@H](O)C4)cc21` [Compound 29, [3-anilino-1-(methylsulfonylmethyl)pyrazolo[4,3-c]pyridin-6-yl]-(3-endo-hydroxy-8-azabicyclo[3.2.1]octan-8-yl)methanone], for which the IC50 on human A2A receptors and at human A2B receptors was below 100 nM each time.
Turning to `CS(=O)(=O)Cn1nc(Nc2ccc(F)cc2)c2cnc(C(=O)N3[C@@H]4CC[C@H]3C[C@@H](O)C4)cc21` [Compound 30, [3-(4-fluoroanilino)-1-(methylsulfonylmethyl)pyrazolo[4,3-c]pyridin-6-yl]-(3-endo-hydroxy-8-azabicyclo[3.2.1]octan-8-yl)methanone], the IC50 at human A2A receptors is below 100 nM; at human A2B receptors, below 1000 nM.
In the case of `CS(=O)(=O)Cn1nc(Nc2cccc(F)c2)c2cnc(C(=O)N3[C@@H]4CC[C@H]3C[C@@H](O)C4)cc21` [Compound 31, [3-(3-fluoroanilino)-1-(methylsulfonylmethyl)pyrazolo[4,3-c]pyridin-6-yl]-(3-endo-hydroxy-8-azabicyclo[3.2.1]octan-8-yl)methanone], the IC50 on human A2A receptors and at human A2B receptors was below 100 nM each time.
`O=C(c1cc2c(cn1)c(Nc1cccc(F)c1)nn2CC(F)(F)F)N1CCOCC(O)C1` (stereo not shown) [Compound 32, [3-(3-fluoroanilino)-1-(2,2,2-trifluoroethyl)pyrazolo[4,3-c]pyridin-6-yl]-(6-hydroxy-1,4-oxazepan-4-yl)methanone]: the IC50 at human A2A receptors is below 100 nM; at human A2B receptors it was below 1000 nM.
With `O=C(c1cc2c(cn1)c(Nc1ccc(F)cc1)nn2CC(F)(F)F)N1CCOCC(O)C1` (stereo not shown) [Compound 33, [3-(4-fluoroanilino)-1-(2,2,2-trifluoroethyl)pyrazolo[4,3-c]pyridin-6-yl]-(6-hydroxy-1,4-oxazepan-4-yl)methanone], the IC50 on human A2A receptors is below 100 nM; on human A2B receptors it was below 1000 nM.
